{
  "source": "patent US20220202897A1",
  "about": "“USE OF CYCLO(HIS-PRO) (CHP) FOR PREVENTING, AMELIORATING, OR TREATING FIBROSIS” (NOVMETAPHARMA CO., LTD., priority 2019, published 2022)",
  "key": {"[1]": {"test_system": "human-derived glomerular endothelial cells", "experiment": "Cytological morphology after CHP treatment in a human-derived glomerular endothelial cell fibrosis model (rTGFβ-induced)", "format": "cell-based", "details": "rTGFβ 2 ng/ml; CHP 40 and 100 μg/ml; FIG. 4"}, "[2]": {"test_system": "HS68 skin fibroblast-derived cell line", "experiment": "Fibronectin protein expression (Western blot) in a human-derived skin cell fibrosis model", "format": "cell-based", "details": "HS68 cells; TGFβ 2 ng/ml with CHP 500 ng/ml; 48 hours; p<0.05 vs TGFβ-treated control; FIG. 9", "procedure": "(§1) DMEM medium and FBS were purchased from Hyclone for culturing the HS68 skin fibroblast-derived cell line, and TGFβ for inducing fibrosis was purchased from R&D Systems. The cells were cultured in a DMEM medium supplemented with 10% FBS in a 5% CO2 incubator at 37° C., treated with TGFβ at a concentration of 2 ng/ml and treated with CHP at 0, 62.5, 125, 250, or 500 ng/ml, and cells were harvested at 48 hours of treatment.\n(§2) Western blotting was performed in the same manner as in Example 3-2 to analyze the expression of fibronectin protein, a fibrotic protein. Statistical significance was analyzed using Student's t-test statistical method with the control (#p<0.05 (negative control group: TGFβ-treated control group), *p<0.05 (TGFβ-treated control group: CHP 500 ng/ml-treated group))."}, "[3]": {"test_system": "Huh7 liver cell line", "experiment": "Fibronectin protein expression (Western blot) in a human-derived hepatocyte fibrosis model", "format": "cell-based", "details": "Huh7 cells; TGFβ 2 ng/ml with CHP 250 ng/ml; 48 hours; corrected by GAPDH; FIG. 5", "procedure": "as §1, with “Huh7 liver” for “HS68 skin fibroblast-derived”, “125,” for “125, 250,”, “250” for “500”\nRIPA lysis buffer and Halt™ protease and phosphatase inhibitor cocktails was purchased from Thermo to analyze the expression of fibronectin protein, a fibrotic protein, and for protein quantification, BCA protein quantification kit was purchased from Thermo. […] The supernatant was collected, and the protein concentration was measured by BCA quantitation, and the protein was separated from the same amount of samples using the Bolt™ protein gel electrophoresis system, and transferred to a nitrocellulose membrane. […] After washing 3 times for 10 minutes with TBST, the expression level was measured by reacting with ECL. The size of the appearing band was quantified using the ImageJ program and corrected by dividing the fibronectin band size value by the GAPDH band size value. Statistical significance was analyzed using Student's t-test statistical method with the control group. #p<0.05 (negative control group: TGFβ treated control group)."}, "[4]": {"test_system": "L-132 lung cell line", "experiment": "Fibronectin protein expression (Western blot) in a human-derived lung cell fibrosis model", "format": "cell-based", "details": "L-132 cells; TGFβ 2 ng/ml with CHP 125 ng/ml; 48 hours; p<0.01 vs TGFβ-treated control; FIG. 7", "procedure": "as §1, with “MEM” for “DMEM”, “L-132 lung” for “HS68 skin fibroblast-derived”, “62.5,” for “62.5, 125, 250,”, “125” for “500”\nas §2, with “**p<0.01” for “*p<0.05”, “125” for “500”"}, "[5]": {"test_system": "animal model of cardiac fibrosis", "experiment": "Fibrosis marker gene expression (real-time PCR) in heart tissue of a high-fat-diet animal model of cardiac fibrosis", "format": "in vivo, C57BL/6 mice", "details": "high-fat diet mice; CHP 5 and 35 mg/kg orally once a day for 16 weeks; corrected by β-actin; no further decrease with concentration; FIG. 10", "procedure": "(§3) For liver fibrosis experiments in animals, 12-week-old C57BL/6 mice fed a high-fat diet containing 60% fat for 6 weeks were purchased from Jackson, USA, and Research diets D12492, a 60% fat-containing high-fat dietary feed purchased from Saeron Bio, were ingested for 17 weeks. Mice were bred to allow free access to feed and water in an environment of 24±3° C. C57BL/6 mice fed a high-fat diet for 6 weeks were acclimatized to the breeding environment for 1 week, and their weights were measured and evenly divided into 3 groups as shown in Table 1. CHP was orally administered to each group at a concentration of 5 mg/kg or 35 mg/kg once a day for 16 weeks, and the same amount of distilled water was orally administered to the control group in the same manner.\nFor cardiac fibrosis experiments in animals, an animal model of cardiac fibrosis was established in the same manner as in Example 4-1.\nIsoflurane required for anesthesia and dissection of mice was purchased from Hana Pharmaceutical, and Vetequip's RC2 Rodent Circuit Controller Anesthesia System was prepared. Phosphate buffered saline (PBS) was purchased from Hyclone. To isolate the mouse heart tissue, the mice were anesthetized by respiratory anesthesia with 3-3.5% isoflurane. After blood was drawn from the heart of the anesthetized mice, the heart tissue was immediately excised, 50 mg of the heart was cut out, and RNA extraction and gene expression analysis were performed in the same manner as in Example 6-2. The expression value of each gene was corrected by dividing by the expression value of (β-actin, a housekeeping gene.\nStatistical significance was analyzed using one-way ANOVA statistical analysis, and the Dunnett post hoc test was used to compare the significance with the HFD control group (*p<0.05, **p<0.01, ****p<0.0001)."}, "[6]": {"test_system": "human-derived proximal tubular epithelial cells", "experiment": "Western blot of E-cadherin, fibronectin and pSTAT3 proteins in the human-derived proximal tubular epithelial cell fibrosis model", "format": "cell-based", "details": "TGFβ 2 ng/ml, CHP 4, 20 and 100 μg/ml, FIG. 3", "excerpt": "Under the same conditions as in Example 1-2, the expression levels of proteins of E-cadherin, a junction marker, fibronectin, a fibrosis marker, and pSTAT3, a fibrosis transcription factor, after CHP administration were checked by Western blot."}, "[7]": {"test_system": "animal model of pulmonary fibrosis", "experiment": "TGFβ and Collagen 3 gene expression (real-time PCR) in lung tissue of a high-fat-diet animal model of pulmonary fibrosis", "format": "in vivo, C57BL/6 mice", "details": "high-fat diet mice; CHP 5 and 35 mg/kg orally once a day for 16 weeks; corrected by GAPDH; FIG. 8"}, "[8]": {"test_system": "animal model of liver fibrosis", "experiment": "Fibronectin protein expression (Western blot) in liver tissue of a high-fat-diet animal model of liver fibrosis", "format": "in vivo, C57BL/6 mice", "details": "60% fat high-fat diet mice; CHP 5 or 35 mg/kg orally once a day for 16 weeks; vs HFD control; effect stronger according to the concentration; FIG. 6", "procedure": "as §3\nIsoflurane required for anesthesia and dissection of mice was purchased from Hana Pharmaceutical, and Vetequip's RC2 Rodent Circuit Controller Anesthesia System was prepared. Phosphate buffered saline (PBS) was purchased from Hyclone. To isolate the mouse liver tissue, the mice were anesthetized by respiratory anesthesia with 3-3.5% isoflurane. After blood was drawn from the heart of anesthetized mice, the liver tissue was immediately excised and washed with PBS. […] Statistical significance was analyzed using the Student's t-test statistical method with HFD control group (*p<0.05, **p<0.01)."}, "[9]": {"test_system": "human-derived proximal tubular epithelial cells", "experiment": "Cytological morphology after CHP treatment in a human-derived proximal tubular epithelial cell fibrosis model (TGFβ-induced)", "format": "cell-based", "details": "recombinant TGFβ 2 ng/ml; CHP 4, 20 and 100 μg/ml; FIG. 2"}, "[10]": {"test_system": "animal model of fat fibrosis", "experiment": "Fibrosis marker gene expression (real-time PCR) in epididymal adipose tissue of a high-fat-diet animal model of fat fibrosis", "format": "in vivo, C57BL/6 mice", "details": "high-fat diet mice; CHP 5 and 35 mg/kg orally once a day for 16 weeks; corrected by GAPDH; FIG. 11", "procedure": "as §3\nFor fat fibrosis experiments in animals, an animal model of fat fibrosis was established in the same manner as in Example 4-1.\nIsoflurane required for anesthesia and dissection of mice was purchased from Hana Pharmaceutical, and Vetequip's RC2 Rodent Circuit Controller Anesthesia System was prepared. Phosphate buffered saline (PBS) was purchased from Hyclone. To isolate the mouse adipose tissue, the mice were anesthetized by respiratory anesthesia with 3-3.5% isoflurane. After blood was drawn from the heart of the anesthetized mice, the epididymal adipose tissue (EAT) was immediately excised, 100 mg of the fat was cut out, and RNA extraction and gene expression analysis were performed in the same manner as in Example 6-2. The expression value of each gene was corrected by dividing by the expression value of GAPDH, a housekeeping gene.\nStatistical significance was analyzed using one-way ANOVA statistical analysis, and the Dunnett post hoc test was used to compare the significance with the control group (*p<0.05, **p<0.01)."}},
  "data": [
    {"smiles": "O=C1N[C@@H](Cc2cnc[nH]2)C(=O)N2CCC[C@@H]12", "note": "[CHP, Cyclo-HisPro]", "values": [
      {"measurement": "cytomorphological fibrosis (cytoskeletal remodeling and morphological changes)", "setting": "[1]", "result": "fibrosis was improved"},
      {"measurement": "expression level of fibronectin protein", "setting": "[2]", "result": "significantly decreased"},
      {"measurement": "expression level of fibronectin protein", "setting": "[3]", "result": "showed a tendency to decrease"},
      {"measurement": "expression level of fibronectin protein", "setting": "[4]", "result": "significantly decreased"},
      {"measurement": "expression of Collagen 1 gene in heart", "setting": "[5]", "result": "significantly reduced"},
      {"measurement": "expression of Collagen 3 gene in heart", "setting": "[5]", "result": "significantly reduced"},
      {"measurement": "expression of Collagen 4 gene in heart", "setting": "[5]", "result": "significantly reduced"},
      {"measurement": "expression of Fibronectin gene in heart", "setting": "[5]", "result": "significantly reduced"},
      {"measurement": "expression of TGFβ gene in heart", "setting": "[5]", "result": "significantly reduced"},
      {"measurement": "protein expression of E-cadherin (junction marker)", "setting": "[6]", "result": "restored"},
      {"measurement": "protein expression of fibronectin (fibrosis marker)", "setting": "[6]", "result": "decreased"},
      {"measurement": "protein expression of pSTAT3 (fibrosis transcription factor)", "setting": "[6]", "result": "decreased"},
      {"measurement": "expression of Collagen 3 gene in lung", "setting": "[7]", "result": "decreased more significantly according to the CHP administration concentration"},
      {"measurement": "expression of TGFβ gene in lung", "setting": "[7]", "result": "decreased more significantly according to the CHP administration concentration"},
      {"measurement": "expression level of fibronectin protein in liver tissue", "setting": "[8]", "result": "significantly decreased"},
      {"measurement": "cytomorphological fibrosis (cytoskeletal remodeling and morphological changes)", "setting": "[9]", "result": "fibrosis was improved"},
      {"measurement": "expression of CTGF gene in fat (epididymal adipose tissue)", "setting": "[10]", "result": "markedly reduced"},
      {"measurement": "expression of Collagen 3 gene in fat (epididymal adipose tissue)", "setting": "[10]", "result": "markedly reduced"},
      {"measurement": "expression of Fibronectin gene in fat (epididymal adipose tissue)", "setting": "[10]", "result": "markedly reduced"},
      {"measurement": "expression of TGFβ gene in fat (epididymal adipose tissue)", "setting": "[10]", "result": "markedly reduced"}
    ]}
  ]
}
